Experimental data: US20240287080A1 (IDEAYA Biosciences Inc., priority 2021, published 2024)
pIC50: −log10 of the molar value.

These compounds were tested against T1, Pol theta (1-899) (Homo sapiens, UniProt O75417) (assay: Pol theta ATPase activity, NADH oxidation-coupled enzymatic assay (ATPase NADH coupling: Standard Screening: hPolQ)). Conditions: Pol theta (1-899) 5 nM, NADH oxidation-coupled ATPase assay; compounds of Table 3.
T1 construct: Pol theta (1-899) (5 nM) in assay buffer
Type: biochemical
How it was run: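 Rates of ATP hydrolysis taken from 60-min A340 traces of NADH oxidation via PK/LDH coupling, then fit four-parameter for IC50, Hill slope and max inhibition. Enzyme (5 nM, 1-899) and compounds preincubated 15 min before ATP 100 μM and 50-thymine ssDNA 300 nM (stock, equal volume added).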

T1 sequence (O75417 1-899): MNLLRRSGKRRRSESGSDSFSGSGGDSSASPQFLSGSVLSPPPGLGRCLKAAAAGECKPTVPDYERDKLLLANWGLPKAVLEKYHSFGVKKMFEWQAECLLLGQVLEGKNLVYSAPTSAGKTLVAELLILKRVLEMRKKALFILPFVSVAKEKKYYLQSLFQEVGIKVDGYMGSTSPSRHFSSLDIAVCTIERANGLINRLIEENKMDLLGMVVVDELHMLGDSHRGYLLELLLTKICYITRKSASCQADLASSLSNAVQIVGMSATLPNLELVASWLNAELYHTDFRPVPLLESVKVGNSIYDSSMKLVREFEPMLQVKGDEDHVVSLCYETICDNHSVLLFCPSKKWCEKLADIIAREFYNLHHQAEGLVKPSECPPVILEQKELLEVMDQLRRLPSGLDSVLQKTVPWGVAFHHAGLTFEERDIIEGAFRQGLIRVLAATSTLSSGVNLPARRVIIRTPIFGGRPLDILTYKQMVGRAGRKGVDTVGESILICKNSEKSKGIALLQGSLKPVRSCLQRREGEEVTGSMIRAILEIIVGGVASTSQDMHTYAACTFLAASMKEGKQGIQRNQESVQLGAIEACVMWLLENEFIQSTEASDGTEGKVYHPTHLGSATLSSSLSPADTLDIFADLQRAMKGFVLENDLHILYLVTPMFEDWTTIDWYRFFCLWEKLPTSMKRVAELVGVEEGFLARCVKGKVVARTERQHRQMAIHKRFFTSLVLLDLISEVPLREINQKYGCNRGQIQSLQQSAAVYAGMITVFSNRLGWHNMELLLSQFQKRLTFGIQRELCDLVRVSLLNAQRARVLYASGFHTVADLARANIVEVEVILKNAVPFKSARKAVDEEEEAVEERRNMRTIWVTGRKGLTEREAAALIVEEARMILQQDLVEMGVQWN

Q: How did the pIC50 turn out when `CCc1cc(C(=O)Nc2nnc(OC)s2)c(-c2cc(Cl)ncc2OC)cn1` [Example 270, 2′-chloro-6-ethyl-5′-methoxy-N-(5-methoxy-1,3,4-thiadiazol-2-yl)-[3,4′-bipyridine]-4-carboxamide] was run?
A: 6.30 to 6.70

Q: With `COc1cnc(Br)cc1-c1cc(C)ncc1C(=O)Nc1nnc(O[C@H]2CCC[C@H](O)C2)s1` [Example 271, 2′-bromo-N-(5-(((1S,3S)-3-hydroxycyclohexyl)oxy)-1,3,4-thiadiazol-2-yl)-5′-methoxy-6-methyl-[4,4′-bipyridine]-3-carboxamide] as the compound, how does the pIC50 read?
A: ≥ 6.70

Q: How did the pIC50 turn out when `COc1nnc(NC(=O)c2cnc(C)cc2-c2ccc(C(N)=O)cc2)s1` [Example 353, 4-(4-carbamoylphenyl)-N-(5-methoxy-1,3,4-thiadiazol-2-yl)-6-methylpyridine-3-carboxamide] was run?
A: 5.00 to 6.00

Q: `COc1cnc(Cl)cc1-c1cc(C)ncc1C(=O)Nc1nnc(O[C@H]2CO[C@H]3[C@@H]2OC[C@H]3O)s1` [Example 237, 2′-chloro-N-(5-(((3S,3aR,6R,6aR)-6-hydroxyhexahydrofuro[3,2-b]furan-3-yl)oxy)-1,3,4-thiadiazol-2-yl)-5′-methoxy-6-methyl-[4,4′-bipyridine]-3-carboxamide] was tested. Which pIC50 did it give?
A: ≥ 6.70

Q: With `COc1nnc(NC(=O)c2cnc(C)cc2-c2cnc(C(F)(F)F)c(F)c2)s1` [Example 342, 5-fluoro-N-(5-methoxy-1,3,4-thiadiazol-2-yl)-6′-methyl-6-(trifluoromethyl)-[3,4′-bipyridine]-3′-carboxamide] as the compound, how does the pIC50 read?
A: 5.00 to 6.00

Q: How did the pIC50 turn out when `COc1cnc(Cl)c(F)c1-c1cc(C)ncc1C(=O)Nc1nnc(O[C@H]2CC[C@H](CO)CC2)s1` [Example 316, 2′-chloro-3′-fluoro-N-(5-(((1r,4r)-4-(hydroxymethyl)cyclohexyl)oxy)-1,3,4-thiadiazol-2-yl)-5′-methoxy-6-methyl-[4,4′-bipyridine]-3-carboxamide] was run?
A: ≥ 6.70

Q: With `COc1cnc(C)cc1-c1cc(C)ncc1C(=O)Nc1nnc(OC2CC=CC2)s1` [Example 240, N-(5-(cyclopent-3-en-1-yloxy)-1,3,4-thiadiazol-2-yl)-5′-methoxy-2′,6-dimethyl-[4,4′-bipyridine]-3-carboxamide] as the compound, how does the pIC50 read?
A: ≥ 6.70

Q: How did the pIC50 turn out when `COc1nnc(NC(=O)c2cnc(C)cc2-c2cccc(N3CCOCC3)c2)s1` [Example 415, N-(5-methoxy-1,3,4-thiadiazol-2-yl)-6-methyl-4-[3-(morpholin-4-yl)phenyl]pyridine-3-carboxamide] was run?
A: 5.00 to 6.00

Q: `COc1nnc(NC(=O)c2cnc(C)cc2-c2ccc(S(C)(=O)=O)nc2)s1` [Example 455, N-(5-methoxy-1,3,4-thiadiazol-2-yl)-6′-methyl-6-(methylsulfonyl)-[3,4′-bipyridine]-3′-carboxamide] was tested. Which pIC50 did it give?
A: 5.00 to 6.00

Q: `COc1nnc(NC(=O)c2cnc(C)cc2-c2ccc3c(c2)CNC3=O)s1` [Example 379, N-(5-methoxy-1,3,4-thiadiazol-2-yl)-6-methyl-4-(1-oxo-2,3-dihydro-1H-isoindol-5-yl)pyridine-3-carboxamide] was tested. Which pIC50 did it give?
A: 5.00 to 6.00

Q: `COc1nnc(NC(=O)c2cnc(C)cc2-c2cncc(C#N)c2)s1` [Example 334, 5-cyano-N-(5-methoxy-1,3,4-thiadiazol-2-yl)-6′-methyl-[3,4′-bipyridine]-3′-carboxamide] was tested. Which pIC50 did it give?
A: 5.00 to 6.00

Q: How did the pIC50 turn out when `Cc1cc(-c2cc(Cl)ncc2OC(F)F)c(C(=O)Nc2nnc(O[C@@H]3CCC[C@H](O)C3)s2)cn1` (single isomer, unassigned) [Example 252] was run?
A: ≥ 6.70

Q: With `COc1nnc(NC(=O)c2cnc(C)cc2-c2cc(C)nc(C)c2)s1` [Example 469, N-(5-methoxy-1,3,4-thiadiazol-2-yl)-2′,6,6′-trimethyl-[4,4′-bipyridine]-3-carboxamide] as the compound, how does the pIC50 read?
A: 6.30 to 6.70

Q: How did the pIC50 turn out when `COc1nnc(NC(=O)c2cnc(C)cc2-c2cnc(C#N)nc2)s1` [Example 444, 4-(2-cyanopyrimidin-5-yl)-N-(5-methoxy-1,3,4-thiadiazol-2-yl)-6-methylnicotinamide] was run?
A: 5.00 to 6.00

Q: How did the pIC50 turn out when `COc1cnc(C)c(F)c1-c1cc(C)ncc1C(=O)Nc1nnc(O[C@@H]2CO[C@H]3OCC[C@H]32)s1` (single isomer, unassigned) [Example 304] was run?
A: ≥ 6.70

Q: How did the pIC50 turn out when `COc1nnc(NC(=O)c2cnc(C)cc2-c2ccc3c(c2)OCO3)s1` [Example 409, 4-(2H-1,3-benzodioxol-5-yl)-N-(5-methoxy-1,3,4-thiadiazol-2-yl)-6-methylpyridine-3-carboxamide] was run?
A: 6.00 to 6.30

Q: How did the pIC50 turn out when `COc1cnc(Br)cc1-c1cc(C)ncc1C(=O)Nc1nnc(O[C@@H]2CCC[C@H](O)C2)s1` (single isomer, unassigned) [Example 239] was run?
A: ≥ 6.70

Q: `COc1cnc(C)c(F)c1-c1cc(C)ncc1C(=O)Nc1nnc(O[C@H]2CC[C@@H](CO)CC2)s1` [Example 257, 3′-fluoro-N-(5-(((1s,4s)-4-(hydroxymethyl)cyclohexyl)oxy)-1,3,4-thiadiazol-2-yl)-5′-methoxy-2′,6-dimethyl-[4,4′-bipyridine]-3-carboxamide] was tested. Which pIC50 did it give?
A: ≥ 6.70

Same assay, conditions: Table 4; Pol theta (1-899) 5 nM, ATP, dT50 ssDNA

Q: With `COc1nnc(NC(=O)c2cnc(C)cc2-c2cc(Cl)ccc2OC(F)F)s1` [Example 33, 4-(5-chloro-2-(difluoromethoxy)phenyl)-N-(5-methoxy-1,3,4-thiadiazol-2-yl)-6-methylnicotinamide] as the compound, how does the pIC50 read?
A: ≥ 6.70

Q: `COc1cnc(Cl)cc1-c1cc(C)ncc1C(=O)Nc1nnc(OCC(C)(C)F)s1` [Example 19, 2′-chloro-N-(5-(2-fluoro-2-methylpropoxy)-1,3,4-thiadiazol-2-yl)-5′-methoxy-6-methyl-(4,4′-bipyridine)-3-carboxamide] was tested. Which pIC50 did it give?
A: ≥ 6.70

Q: How did the pIC50 turn out when `COc1cnc(Cl)cc1-c1cc(C)ncc1C(=O)Nc1nnc(O[C@H]2CC[C@@H](O)C2)s1` [Example 46, 2′-chloro-N-(5-(((1s,3r)-3-hydroxycyclopentyl)oxy)-1,3,4-thiadiazol-2-yl)-5′-methoxy-6-methyl-(4,4′-bipyridine)-3-carboxamide] was run?
A: ≥ 6.70

Q: How did the pIC50 turn out when `COc1nnc(NC(=O)c2cnc(C)cc2-c2cc(C)ncc2OC(F)F)s1` [Example 52, 5′-(difluoromethoxy)-N-(5-methoxy-1,3,4-thiadiazol-2-yl)-2′,6-dimethyl-(4,4′-bipyridine)-3-carboxamide] was run?
A: ≥ 6.70

Q: How did the pIC50 turn out when `COc1cnc(Cl)cc1-c1cc(C)ncc1C(=O)Nc1nnc(O[C@@H]2CC[C@H](O)C2)s1` (single isomer, unassigned) [Example 59] was run?
A: ≥ 6.70

Q: How did the pIC50 turn out when `COc1nnc(NC(=O)c2cnc(C)cc2-c2cc(C(F)F)ncc2OC)s1` [Example 70, 2′-(difluoromethyl)-5′-methoxy-N-(5-methoxy-1,3,4-thiadiazol-2-yl)-6-methyl-(4,4′-bipyridine)-3-carboxamide] was run?
A: ≥ 6.70

Q: With `CCOc1ccc(Cl)cc1-c1cc(C)ncc1C(=O)Nc1nnc(OC)s1` [Example 53, 4-(5-chloro-2-ethoxyphenyl)-N-(5-methoxy-1,3,4-thiadiazol-2-yl)-6-methylnicotinamide] as the compound, how does the pIC50 read?
A: 6.30 to 6.70

Q: How did the pIC50 turn out when `COc1cnc(Cl)cc1-c1cc(C)ncc1C(=O)Nc1nnc(OCC(C)(F)F)s1` [Example 20, 6′-chloro-N-(5-(2,2-difluoropropoxy)-1,3,4-thiadiazol-2-yl)-3′-methoxy-6-methyl-4,4′-bipyridine-3-carboxamide] was run?
A: ≥ 6.70

Same assay, conditions: Table 5; Pol theta (1-899) 5 nM, ATP, dT50 ssDNA

Q: With `COc1cnc(Cl)c(F)c1-c1cc(C)ncc1C(=O)Nc1nnc(O[C@@H]2CCO[C@@H]2C)s1` (single isomer, unassigned) [Example 166] as the compound, how does the pIC50 read?
A: ≥ 6.70

Q: With `Cc1cc(-c2cc(Cl)ncc2OC(F)F)c(C(=O)Nc2nnc(O[C@@H]3COC4(CC4)C3)s2)cn1` (single isomer, unassigned) [Example 232] as the compound, how does the pIC50 read?
A: ≥ 6.70

Q: How did the pIC50 turn out when `COc1cnc(C)c(F)c1-c1cc(C)ncc1C(=O)Nc1nnc(O[C@@H]2C[C@H]3CC[C@@H]2O3)s1` (single isomer, unassigned) [Example 218] was run?
A: ≥ 6.70

Q: `COc1cnc(Cl)cc1-c1cc(C)ncc1C(=O)Nc1nnc(O[C@@]2(C)CCOC2)s1` (single isomer, unassigned) [Example 138] was tested. Which pIC50 did it give?
A: ≥ 6.70

Q: How did the pIC50 turn out when `COc1nnc(NC(=O)c2cnc(C3CCCC3)cc2-c2cc(Cl)ncc2OC)s1` [Example 143, 2′-chloro-6-cyclopentyl-5′-methoxy-N-(5-methoxy-1,3,4-thiadiazol-2-yl)-(4,4′-bipyridine)-3-carboxamide] was run?
A: 6.30 to 6.70

Q: With `COc1cnc(Cl)cc1-c1cc(C)ncc1C(=O)Nc1nnc(O[C@@H]2CCC[C@H](O)C2)s1` (single isomer, unassigned) [Example 160] as the compound, how does the pIC50 read?
A: ≥ 6.70

Q: `COc1cnc(Cl)cc1-c1cc(C)ncc1C(=O)Nc1nnc(O[C@H]2CCC[C@H](O)C2)s1` (single isomer, unassigned) [Example 161] was tested. Which pIC50 did it give?
A: ≥ 6.70

Q: With `COc1cnc(Cl)cc1-c1cc(C)ncc1C(=O)Nc1nnc(O[C@@H]2CCC[C@@](C)(O)C2)s1` (single isomer, unassigned) [Example 182] as the compound, how does the pIC50 read?
A: ≥ 6.70

Q: How did the pIC50 turn out when `COc1cnc(Cl)cc1-c1cc(COC2CC2)ncc1C(=O)Nc1nnc(O[C@@H]2CCOC2)s1` [Example 214, (R)-2′-chloro-6-(cyclopropoxymethyl)-5′-methoxy-N-(5-((tetrahydrofuran-3-yl)oxy)-1,3,4-thiadiazol-2-yl)-(4,4′-bipyridine)-3-carboxamide] was run?
A: ≥ 6.70

Q: With `COc1cnc(Cl)cc1-c1cc(C)ncc1C(=O)Nc1nnc(O[C@H]2COC3(CC3)C2)s1` (single isomer, unassigned) [Example 117] as the compound, how does the pIC50 read?
A: ≥ 6.70

Q: `COc1cnc(Cl)c(F)c1-c1cc(C)ncc1C(=O)Nc1nnc(O[C@H]2CC[C@@](C)(O)CC2)s1` (single isomer, unassigned) [Example 171, 2′-chloro-3′-fluoro-N-(5-(((1s,4s)-4-hydroxy-4-methylcyclohexyl)oxy)-1,3,4-thiadiazol-2-yl)-5′-methoxy-6-methyl-(4,4′-bipyridine)-3-carboxamide] was tested. Which pIC50 did it give?
A: ≥ 6.70

Q: With `COc1cnc(Cl)cc1-c1cc(C)ncc1C(=O)Nc1nnc(O[C@H]2CCC23COC3)s1` (single isomer, unassigned) [Example 136] as the compound, how does the pIC50 read?
A: ≥ 6.70
